Test results taken from the NIST ThermoML archive (doi:10.1021/je100287g).
± gives the expanded uncertainty stated by the source.

Test: cn = amount concentration of the nth substance listed, in mol/dm3
Conditions: 101 kPa, Liquid, digital conductivity meter (CM-180, Elico India)

Q: With `Nc1ccc(S(=O)(=O)[N-]c2nccs2)cc1.[Na+]` [sodium ((4-aminophenyl)sulfonyl)(thiazol-2-yl)amide] + O as the compound, how does the electrical conductivity (283 K, c1 = 0.001) read?
A: 0.0053 ± 0.0019 S/m

Q: And the electrical conductivity (283 K, c1 = 0.002)?
A: 0.0101 ± 0.0018 S/m

Q: What about the electrical conductivity (283 K, c1 = 0.004) of the same compound?
A: 0.0189 ± 0.0018 S/m

Q: And the electrical conductivity (283 K, c1 = 0.006)?
A: 0.0281 ± 0.0018 S/m

Q: What about the electrical conductivity (283 K, c1 = 0.008) of the same compound?
A: 0.0366 ± 0.0019 S/m

Q: What about the electrical conductivity (283 K, c1 = 0.01) of the same compound?
A: 0.0468 ± 0.002 S/m

Q: And the electrical conductivity (293 K, c1 = 0.001)?
A: 0.0064 ± 0.0024 S/m

Q: And the electrical conductivity (293 K, c1 = 0.002)?
A: 0.0124 ± 0.0022 S/m

Q: And the electrical conductivity (293 K, c1 = 0.004)?
A: 0.0233 ± 0.0022 S/m

Q: And the electrical conductivity (293 K, c1 = 0.006)?
A: 0.0344 ± 0.0021 S/m

Q: What about the electrical conductivity (293 K, c1 = 0.008) of the same compound?
A: 0.0447 ± 0.0023 S/m

Q: What about the electrical conductivity (293 K, c1 = 0.01) of the same compound?
A: 0.0574 ± 0.0027 S/m

Q: And the electrical conductivity (303 K, c1 = 0.001)?
A: 0.0078 ± 0.0029 S/m

Q: And the electrical conductivity (303 K, c1 = 0.002)?
A: 0.0151 ± 0.0028 S/m

Q: What about the electrical conductivity (303 K, c1 = 0.004) of the same compound?
A: 0.0288 ± 0.0027 S/m

Q: And the electrical conductivity (303 K, c1 = 0.006)?
A: 0.0423 ± 0.0026 S/m

Q: And the electrical conductivity (303 K, c1 = 0.008)?
A: 0.0545 ± 0.0028 S/m

Q: What about the electrical conductivity (303 K, c1 = 0.01) of the same compound?
A: 0.07 ± 0.0034 S/m

Q: What about the electrical conductivity (313 K, c1 = 0.001) of the same compound?
A: 0.00967 ± 0.0039 S/m

Q: And the electrical conductivity (313 K, c1 = 0.002)?
A: 0.0195 ± 0.0034 S/m

Q: What about the electrical conductivity (313 K, c1 = 0.004) of the same compound?
A: 0.0353 ± 0.0032 S/m

Q: And the electrical conductivity (313 K, c1 = 0.006)?
A: 0.0516 ± 0.0031 S/m

Q: And the electrical conductivity (313 K, c1 = 0.008)?
A: 0.0661 ± 0.0035 S/m

Q: And the electrical conductivity (313 K, c1 = 0.01)?
A: 0.0866 ± 0.0041 S/m
